# Laboratory results from patent US11324178B2, “Wheat having resistance to glyphosate due to alterations in 5-enol- pyruvylshikimate-3 phosphate synthase” (priority 2015, dated 2022).
# Entries after “also recorded” stand apart in the source; their conditions may differ.
# What was measured:
# [1] = target: E. coli EPSPS T97I (Escherichia coli, UniProt P0A6D3, T97I); settings: Funke et al. 2009; cited from earlier work
# [2] = tested on: maize EPSPS (threonine to isoleucine); settings: U.S. Pat. No. 6,566,587; cited from earlier work
# [3] = tested on: wheat seeds homozygous for the double preferred EPSPS mutations (T173I D genome and P177S A genome); assay: Growth chamber germination on MS medium containing glyphosate, shoot and root length; type: in vivo, Triticum aestivum; settings: MS media containing glyphosate, double mutation seeds compared with single mutation seeds
# Description: (§1) Plants homozygous for the single preferred mutations (the T173I mutation in the B genome, the T173I mutation in the D genome and the P177S mutation in the A genome) were identified in the M3 seeds. Wild type siblings were also identified and used as controls. Plants that were homozygous for the T173I mutation in the D genome were crossed to plants that were homozygous for the P177S mutation in the A genome to generate double mutant plants.
# (§2) Growth Chamber Studies: Seeds from plants that were homozygous for one of the single preferred mutations and seeds from their wild type sibling control plants were surface sterilized, placed on moist germination paper overnight, and then grown in glass tubes with 0.1× Murashige & Skoog (MS) medium containing 0 or 0.15 mM glyphosate. Germination was performed in a growth chamber under a light condition of 16 hours of light/8 hours of dark of 80 microEinsteins. At 10-14 days of development, shoot and root lengths were measured.
# (§3) Seeds from plants that were homozygous for the double preferred mutations (both T173 I and P177S) were compared to seeds that were homozygous for each of the single preferred mutation for their ability to survive on MS media containing glyphosate. Seeds from their wild type sibling plants were used as […]. Seeds were germinated as described above.
# [4] = tested on: wheat seeds homozygous for one single preferred EPSPS mutation (T173I B genome, T173I D genome or P177S A genome); assay: as above; type: in vivo, Triticum aestivum; settings: 0.1x MS medium, 0.15 mM glyphosate, 10-14 days of development
# Description: as §1, §2, §3
# [5] = tested on: wild type sibling control seeds (wheat cultivar Express); assay: as above; type: in vivo, Triticum aestivum; settings: 0.1x MS medium, 0.15 mM glyphosate, 10-14 days of development
# Description: as §1, §2, §3
# Sequence of E. coli EPSPS T97I (P0A6D3 whole entry T97I): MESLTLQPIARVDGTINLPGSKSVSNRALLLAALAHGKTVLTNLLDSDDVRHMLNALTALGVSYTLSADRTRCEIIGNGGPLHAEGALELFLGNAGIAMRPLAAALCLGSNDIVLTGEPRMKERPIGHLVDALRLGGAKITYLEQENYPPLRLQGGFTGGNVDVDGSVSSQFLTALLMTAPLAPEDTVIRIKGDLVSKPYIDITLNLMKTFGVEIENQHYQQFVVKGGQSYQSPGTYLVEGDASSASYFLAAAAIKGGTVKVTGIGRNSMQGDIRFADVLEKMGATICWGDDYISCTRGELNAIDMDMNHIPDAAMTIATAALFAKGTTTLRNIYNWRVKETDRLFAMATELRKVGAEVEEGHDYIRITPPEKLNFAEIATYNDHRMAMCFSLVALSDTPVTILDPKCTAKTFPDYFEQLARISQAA
compound,measurement,setting,value
O=C(O)CNCP(=O)(O)O [glyphosate],sensitivity of mutated enzyme to glyphosate,[1],leads to sensitivity to glyphosate
same,inhibition of mutated enzyme by glyphosate,[2],reduced inhibition by glyphosate
same,growth (shoot and root length) of seeds on medium containing glyphosate,[3],more resistant to glyphosate than seeds that were homozygous for each of the single preferred mutations
same,growth (shoot and root length) of seeds on medium containing glyphosate,[4],the majority of seeds with mutations grew well; also recorded: resistant to glyphosate and grew well
same,growth (shoot and root length) of seeds on medium containing glyphosate,[5],for the most part failed to grow
